The results in this text go back to patent US5298495A, “Partricin derivatives” (SPA Societa' Prodotti Antibiotici SpA, priority 1990, dated 1994).

The subject of one data set is C. albicans 73. Briefly: Microbiological activity on C. albicans (MIC). The format is cell-based. As to conditions: Candida albicans, 73, Fluid Sab. Med, 36° C. The source says: (§1) MIC (ng/ml) Hemolytic con.(mcg/ml)
(§2) C. albicans 73 rat erytrocytes, […]

In the next data set the test system is rat erytrocytes. Briefly: Hemolytic activity on rat erythrocytes. The format is cell-based. The note with it: for Hemolytic con. min. (MHC): rat, 240 min.
Excerpt: as §1, §2

A short description of data set [1]: Acute toxicity in mice (DL50). The format is in vivo. As to conditions: mouse, in vivo.
[2] abbreviates: 24 h, read-out: MIC C. albicans 73, 24 h.
The mark [3] stands for this setting: 48 h, read-out: MIC C. albicans 73, 48 h.

The structures appear in SMILES notation. Values after ≈ are worked out from the molar mass of the structure shown. Read-outs that look alike come from different tables or passages of the source.

As to `CNc1ccc(C(=O)CC(O)CCC(C)C2OC(=O)CC(O)CC(=O)CC(O)CC(O)CC(O)CC(O)CC3(O)CC(O)C(C(=O)NCCCN(C)C)C(CC(OC4OC(C)C(O)C(NC(=O)CN(C)C)C4O)C=CC=CC=CC=CC=CC=CC=CC2C)O3)cc1` (centres unmarked), the MIC (in general, the lowest concentration that inhibits growth of the organism) came to 0.015 µg/mL (≈ 0.0116 µM) in the data set with C. albicans 73 (setting [2]) and 0.03 µg/mL (≈ 0.0231 µM) in the data set with C. albicans 73 (setting [3]). Moreover, the “Hemolytic con. total (THC)” value in the data set with rat erytrocytes came out at 10.4 µg/mL. In addition, the “Hemolytic con. min. (MHC)” value in the data set with rat erytrocytes was determined as 0.2 µg/mL. Further, the LD50 in data set [1] (ip, read-out: DL50 mice i.p.) came out at 12.4 mg/kg.

As to `CNc1ccc(C(=O)CC(O)CCC(C)C2OC(=O)CC(O)CC(=O)CC(O)CC(O)CC(O)CC(O)CC3(O)CC(O)C(C(=O)NCCN(C)C)C(CC(OC4OC(C)C(O)C(NC(=O)CN(C)C)C4O)C=CC=CC=CC=CC=CC=CC=CC2C)O3)cc1` (centres unmarked) [Partr. A, COCH2N(CH3)2, NHCH2 CH2N(CH3)2, N-dimethylaminoacetyl-partricin A 2-dimethylaminoethylamide], the values for the minimum inhibitory concentration (MIC) in the data set with C. albicans 73 (setting [2]) and in the data set with C. albicans 73 (setting [3]) were 0.0075 µg/mL (≈ 0.00585 µM) and 0.015 µg/mL (≈ 0.0117 µM), respectively. Moreover, the “Hemolytic con. total (THC)” value in the data set on rat erytrocytes was greater than 18 µg/mL. In addition, the “Hemolytic con. min. (MHC)” value in the data set with rat erytrocytes was 18 µg/mL. For the same compound, the LD50 turned out to be 158 mg/kg in data set [1] (ip, read-out: DL50 mice i.p.) and 58 mg/kg in data set [1] (iv, read-out: DL50 mice i.v.).

Take `CNc1ccc(C(=O)CC(O)CCC(C)C2OC(=O)CC(O)CC(=O)CC(O)CC(O)CC(O)CC(O)CC3(O)CC(O)C(C(=O)N4CCN(CCO)CC4)C(CC(OC4OC(C)C(O)C(NC(=O)CN(C)C)C4O)C=CC=CC=CC=CC=CC=CC=CC2C)O3)cc1` (centres unmarked) [Partr. A, COCH2N(CH3)2, drawing 30]: the minimum inhibitory concentration (MIC) in the data set with C. albicans 73 (setting [2]) turned out to be 0.0075 µg/mL (≈ 0.00566 µM). In addition, the MIC with C. albicans 73 (setting [3]) was found to be 0.0212 µg/mL (≈ 0.016 µM). In addition, in the data set on rat erytrocytes, the “Hemolytic con. total (THC)” value turned out to be 0.7 µg/mL and the “Hemolytic con. min. (MHC)” value worked out at 0.2 µg/mL.

As to `CNc1ccc(C(=O)CC(O)CCC(C)C2OC(=O)CC(O)CC(=O)CC(O)CC(O)CC(O)CC(O)CC3(O)CC(O)C(C(=O)N4CCN(CCO)CC4)C(CC(OC4OC(C)C(O)C(NC(=O)CCN5CCCCC5)C4O)C=CC=CC=CC=CC=CC=CC=CC2C)O3)cc1` (centres unmarked) [Partr. A, drawing 34, drawing 35], the minimum inhibitory concentration (MIC) in the data set with C. albicans 73 (setting [2]) is 0.0075 µg/mL (≈ 0.00544 µM). In the data set with C. albicans 73 (setting [3]), the minimal inhibitory concentration (MIC) amounted to 0.03 µg/mL (≈ 0.0218 µM). In addition, in the data set on rat erytrocytes, the “Hemolytic con. total (THC)” value was determined as 2 µg/mL and the “Hemolytic con. min. (MHC)” value came out at 0.2 µg/mL.

Take `CNc1ccc(C(=O)CC(O)CCC(C)C2OC(=O)CC(O)CC(=O)CC(O)CC(O)CC(O)CC(O)CC3(O)CC(O)C(C(=O)N4CCN(C)CC4)C(CC(OC4OC(C)C(O)C(NC(=O)CCN5CCCCC5)C4O)C=CC=CC=CC=CC=CC=CC=CC2C)O3)cc1` (centres unmarked) [Partr. A, drawing 36, drawing 37]: in the data set with C. albicans 73 (setting [2]), the minimum inhibitory concentration (MIC) turned out to be 0.0075 µg/mL (≈ 0.00556 µM). The MIC in the data set on C. albicans 73 (setting [3]) amounted to 0.015 µg/mL (≈ 0.0111 µM). Moreover, in the data set with rat erytrocytes, the “Hemolytic con. total (THC)” value came to 3.5 µg/mL and the “Hemolytic con. min. (MHC)” value is 0.2 µg/mL.

For the compound `CNc1ccc(C(=O)CC(O)CCC(C)C2OC(=O)CC(O)CC(=O)CC(O)CC(O)CC(O)CC(O)CC3(O)CC(O)C(C(=O)N4CCN(CCO)CC4)C(CC(OC4OC(C)C(O)C(NC(=O)CN5CCN(C)CC5)C4O)C=CC=CC=CC=CC=CC=CC=CC2C)O3)cc1` (centres unmarked) [Partr. A, drawing 40, drawing 41], in the data set with C. albicans 73 (setting [2]), the MIC was found to be 0.015 µg/mL (≈ 0.0109 µM). The MIC in the data set on C. albicans 73 (setting [3]) was 0.0212 µg/mL (≈ 0.0154 µM). Besides, in the data set with rat erytrocytes, the “Hemolytic con. total (THC)” value came to 2 µg/mL and the “Hemolytic con. min. (MHC)” value is 0.2 µg/mL.

For `CNc1ccc(C(=O)CC(O)CCC(C)C2OC(=O)CC(O)CC(=O)CC(O)CC(O)CC(O)CC(O)CC3(O)CC(O)C(C(=O)N4CCN(CCO)CC4)C(CC(OC4OC(C)C(O)C(NC(=O)CN5CCN(CCO)CC5)C4O)C=CC=CC=CC=CC=CC=CC=CC2C)O3)cc1` (centres unmarked) [Partr. A, drawing 46, drawing 47], the minimal inhibitory concentration (MIC) with C. albicans 73 (setting [2]) is 0.0106 µg/mL (≈ 0.00752 µM). For the same compound, in the data set on C. albicans 73 (setting [3]), the MIC amounted to 0.0212 µg/mL (≈ 0.015 µM). Further, in the data set on rat erytrocytes, the “Hemolytic con. total (THC)” value was found to be 0.7 µg/mL and the “Hemolytic con. min. (MHC)” value amounted to 0.2 µg/mL.

Regarding `CNc1ccc(C(=O)CC(O)CCC(C)C2OC(=O)CC(O)CC(=O)CC(O)CC(O)CC(O)CC(O)CC3(O)CC(O)C(C(=O)N4CCN(C)CC4)C(CC(OC4OC(C)C(O)C(NC(=O)CN5CCN(CCO)CC5)C4O)C=CC=CC=CC=CC=CC=CC=CC2C)O3)cc1` (centres unmarked) [Partr. A, drawing 48, drawing 49], the minimum inhibitory concentration (MIC) in the data set on C. albicans 73 (setting [2]) amounted to 0.0075 µg/mL (≈ 0.00544 µM); with C. albicans 73 (setting [3]), 0.015 µg/mL (≈ 0.0109 µM). Moreover, the “Hemolytic con. total (THC)” value in the data set with rat erytrocytes stood at 0.7 µg/mL. Also, the “Hemolytic con. min. (MHC)” value in the data set on rat erytrocytes was found to be 0.2 µg/mL.
